This note sets out measurements from US11970473B2, “Nootkatone derivatives and methods of using the same” (Arkansas State University—Jonesboro, priority 2021, dated 2024).

Molecules are shown by their SMILES. Values after ≈ are worked out from the molar mass of the structure shown. Where two headings read alike, the source gives them in different places.

Common to all, as to assay: Minimal inhibitory concentration (MIC) assay
What all share (assay type): cell-based

The test system of assay [1] is Enterococcus faecalis ATCC 29212 (Es12). Here is the method:
(§1) Minimal inhibitory concentration (MIC) assay The standard microdilution method recommended by the Clinical and Laboratory Standards Institute (CLSI) was used to determine the MIC of the antibiotics. The starting concentration of compounds was 50 μg/ml and 2-fold dilution was done down the 96 honeycomb well plate column. The MIC assay was conducted in triplicates.

The test system of assay [2] is S. aureus BAA-2312 (Sa12). The settings on record: Staphylococcus aureus. The method, then:
as §1

The subject of assay [3] is S. epidermidis 700296 (Se). The settings on record: Staphylococcus epidermidis, read-out: Antimicrobial activity (MIC) Se. Here is the method:
as §1

For assay [4], the system named is S. aureus ATCC 700699 (Sa99). Particulars: Staphylococcus aureus. Here is the method:
as §1

The subject of assay [5] is S. aureus ATCC 33591 (Sa91). Particulars: Staphylococcus aureus. Here is the method: as §1
In assay [6] the test system is Enterococcus faecium ATCC 700221 (Em21). Particulars: Enterococcus faecium. Here is the method:
as §1

The test system of assay [7] is S. aureus ATCC 33592 (Sa92). The settings on record: Staphylococcus aureus. The method, then: as §1
Assay [8] concerns B. subtilis ATCC 6623 (Bs). The settings on record: Bacillus subtilis. Here is the method:
as §1

The test system of assay [9] is S. aureus ATCC 25923 (Sa23). Particulars: Staphylococcus aureus. The method, then:
as §1

[10] abbreviates: ATCC29212, Enterococcus faecalis ATCC 29212, read-out: Antimicrobial activity (MIC) Es12.
[11] abbreviates: BAA2312, S. aureus BAA-2312, antibiotic-resistant strain, read-out: Antimicrobial activity (MIC) Sa12.
[12] abbreviates: ATCC700699, S. aureus ATCC 700699, antibiotic-resistant strain, read-out: Antimicrobial activity (MIC) Sa99.
[13] abbreviates: ATCC33591, S. aureus ATCC 33591, antibiotic-resistant strain, read-out: Antimicrobial activity (MIC) Sa91.
Where [14] appears, read: ATCC700221, Enterococcus faecium ATCC 700221, read-out: Antimicrobial activity (MIC) Em21.
The mark [15] stands for this setting: ATCC33592, S. aureus ATCC 33592, antibiotic-resistant strain, read-out: Antimicrobial activity (MIC) Sa92.
[16] abbreviates: ATCC6623, B. subtilis ATCC 6623, read-out: Antimicrobial activity (MIC) Bs.
[17] abbreviates: ATCC25923, S. aureus ATCC 25923, antibiotic susceptible strain, read-out: Antimicrobial activity (MIC) Sa23.

With `C=C(C)[C@@H]1CC=C2c3sc(-c4ccc(C(C)(C)C)cc4)nc3C[C@@H](C)[C@]2(C)C1` [Compound 9, (5R,5aS,7R)-2-(4-tert-butylphenyl)-7-isopropenyl-5,5a-dimethyl-5,6,7,8-tetrahydro-4H-benzo[g][1,3]benzothiazole], the MIC in assay [1] (setting [10]), in [2] (setting [11]), in assay [3] (S. epidermidis 700296), in [4] (setting [12]), in [5] (setting [13]) and in [6] (setting [14]) was above 100 µg/mL throughout. Further, the MIC in [7] (setting [15]) and in assay [8] (setting [16]) was above 100 µg/mL in each case.
`C=C(C)[C@@H]1CC=C2c3sc(Cc4ccccc4C)nc3C[C@@H](C)[C@]2(C)C1` [Compound 4, (5R,5aS,7R)-7-isopropenyl-5,5a-dimethyl-2-(o-tolylmethyl)-5,6,7,8-tetrahydro-4H-benzo[g][1,3]benzothiazole]: the MIC (in general, the lowest concentration that inhibits growth of the organism) was above 100 µg/mL in [1] (Enterococcus faecalis, ATCC29212, read-out: Antimicrobial activity (MIC) Es12); above 100 µg/mL in assay [2] (BAA2312, read-out: Antimicrobial activity (MIC) Sa12); above 100 µg/mL in [9] (ATCC25923, read-out: Antimicrobial activity (MIC) Sa23); above 100 µg/mL in [3]; above 100 µg/mL in assay [4] (ATCC700699, read-out: Antimicrobial activity (MIC) Sa99); above 100 µg/mL in [5] (ATCC33591, read-out: Antimicrobial activity (MIC) Sa91). In addition, the MIC in assay [6] (ATCC700221, read-out: Antimicrobial activity (MIC) Em21) is above 100 µg/mL; in assay [7] (ATCC33592, read-out: Antimicrobial activity (MIC) Sa92), above 100 µg/mL; in assay [8] (ATCC6623, read-out: Antimicrobial activity (MIC) Bs), above 100 µg/mL.
For `C=C(C)[C@@H]1CC=C2c3sc(-c4ccc([N+](=O)[O-])cc4)nc3C[C@@H](C)[C@]2(C)C1` [Compound 23, (5R,5aS,7R)-7-isopropenyl-5,5a-dimethyl-2-(4-nitrophenyl)-5,6,7,8-tetrahydro-4H-benzo [g][1,3]benzothiazole], the MIC in assay [1] (setting [10]), in assay [2] (setting [11]), in assay [3] (S. epidermidis 700296), in assay [4] (setting [12]), in [5] (setting [13]) and in [6] (setting [14]) was above 100 µg/mL in each case. Moreover, the MIC in assay [7] (setting [15]) and in assay [8] (setting [16]) was above 100 µg/mL throughout.
Turning to `C=C(C)[C@@H]1CC=C2c3sc(-c4ccc(OC)cc4)nc3C[C@@H](C)[C@]2(C)C1` [Compound 10, (5R,5aS,7R)-7-isopropenyl-2-(4-methoxyphenyl)-5,5a-dimethyl-5,6,7,8-tetrahydro-4H-benzo[g][1,3]benzothiazole], the MIC is above 100 µg/mL in assay [1] (setting [10]); 100 µg/mL (≈ 274 µM) in [2] (setting [11]); 50 µg/mL (≈ 137 µM) in assay [9] (setting [17]); above 100 µg/mL in assay [3] (S. epidermidis 700296); above 100 µg/mL in assay [4] (setting [12]); 100 µg/mL (≈ 274 µM) in [5] (setting [13]). For the same molecule, the MIC in assay [6] (setting [14]) was above 100 µg/mL; in [7] (setting [15]) it was above 100 µg/mL; in assay [8] (setting [16]), 50 µg/mL (≈ 137 µM).
Regarding `C=C(C)[C@@H]1CC=C2c3sc(Nc4ccccc4C(F)(F)F)nc3C[C@@H](C)[C@]2(C)C1` [Compound 27, (5R,5aS,7R)-7-isopropenyl-5,5a-dimethyl-N-[2-(trifluoromethyl)phenyl]-5,6,7,8-tetrahydro-4H-benzo[g][1,3]benzothiazol-2-amine], the MIC in assay [1] (setting [10]), in [2] (setting [11]), in [3] (S. epidermidis 700296), in assay [4] (setting [12]), in [5] (setting [13]) and in assay [6] (setting [14]) was above 100 µg/mL throughout. The MIC in assay [7] (setting [15]) and in [8] (setting [16]) was above 100 µg/mL throughout.
In the case of `C=C(C)[C@@H]1CC=C2c3sc(-c4ccc(Cl)cc4)nc3C[C@@H](C)[C@]2(C)C1` [Compound 19, (5R,5aS,7R)-2-(4-chlorophenyl)-7-isopropenyl-5,5a-dimethyl-5,6,7,8-tetrahydro-4H-benzo[g][1,3]benzothiazole], the MIC in assay [1] (setting [10]) was above 100 µg/mL; in assay [2] (setting [11]) it was 25 µg/mL (≈ 67.6 µM); in [9] (setting [17]), 25 µg/mL (≈ 67.6 µM); in assay [3] (S. epidermidis 700296) it was 50 µg/mL (≈ 135 µM); in assay [4] (setting [12]) it was 25 µg/mL (≈ 67.6 µM); in [5] (setting [13]), 50 µg/mL (≈ 135 µM). In addition, the MIC is above 100 µg/mL in assay [6] (setting [14]), above 100 µg/mL in assay [7] (setting [15]) and 12.5 µg/mL (≈ 33.8 µM) in [8] (setting [16]).
As for `C=C(C)[C@@H]1CC=C2c3sc(-c4ccc(Oc5ccc(C(F)(F)F)cn5)cc4)nc3C[C@@H](C)[C@]2(C)C1` [Compound 12, (5R,5aS,7R)-7-isopropenyl-5,5a-dimethyl-2-[4-[[5-(trifluoromethyl)-2-pyridyl]oxy]phenyl]-5,6,7,8-tetrahydro-4H-benzo[g][1,3]benzothiazole], the MIC in assay [1] (setting [10]), in assay [2] (setting [11]), in [3] (S. epidermidis 700296), in assay [4] (setting [12]), in assay [5] (setting [13]) and in assay [6] (setting [14]) was above 100 µg/mL throughout. In addition, the MIC in assay [7] (setting [15]) and in [8] (setting [16]) was above 100 µg/mL in each case.
As for `C=C(C)[C@@H]1CC=C2c3sc(-c4ccccc4O)nc3C[C@@H](C)[C@]2(C)C1` [Compound 13, 2-[(5R,5aS,7R)-7-isopropenyl-5,5a-dimethyl-5,6,7,8-tetrahydro-4H-benzo[g][1,3]benzothiazol-2-yl]phenol], the MIC was above 100 µg/mL in assay [1] (setting [10]); 100 µg/mL (≈ 284 µM) in [2] (setting [11]); 50 µg/mL (≈ 142 µM) in [9] (setting [17]); above 100 µg/mL in assay [3] (S. epidermidis 700296); above 100 µg/mL in assay [4] (setting [12]); 100 µg/mL (≈ 284 µM) in assay [5] (setting [13]). Further, the MIC is above 100 µg/mL in assay [6] (setting [14]), above 100 µg/mL in assay [7] (setting [15]) and 50 µg/mL (≈ 142 µM) in [8] (setting [16]).
As to `C=C(C)[C@@H]1CC=C2c3sc(C4CCOCC4)nc3C[C@@H](C)[C@]2(C)C1` [Compound 5, (5R,5aS,7R)-7-isopropenyl-5,5a-dimethyl-2-tetrahydropyran-4-yl-5,6,7,8-tetrahydro-4H-benzo[g][1,3]benzothiazole], the MIC in [1] (setting [10]) was above 100 µg/mL; in [2] (setting [11]) it was 100 µg/mL (≈ 291 µM); in [9] (setting [17]), 100 µg/mL (≈ 291 µM); in assay [3] (S. epidermidis 700296) it was above 100 µg/mL; in [4] (setting [12]) it was above 100 µg/mL; in assay [5] (setting [13]) it was above 100 µg/mL. The MIC was above 100 µg/mL in [6] (setting [14]), 100 µg/mL (≈ 291 µM) in [7] (setting [15]) and 50 µg/mL (≈ 146 µM) in [8] (setting [16]).
With `C=C(C)[C@@H]1CC=C2c3sc(Nc4cccc(C(F)(F)F)c4)nc3CC[C@]2(C)[C@H]1C` [Compound 28, (5aR,6S,7R)-7-isopropenyl-5a,6-dimethyl-N-[3-(trifluoromethyl)phenyl]-5,6,7,8-tetrahydro-4H-benzo[g][1,3]benzothiazol-2-amine], the MIC in [1] (setting [10]), in [2] (setting [11]), in assay [3] (S. epidermidis 700296), in assay [4] (setting [12]), in assay [5] (setting [13]) and in assay [6] (setting [14]) was above 100 µg/mL each time. The MIC in assay [7] (setting [15]) and in assay [8] (setting [16]) was above 100 µg/mL throughout.
Consider `C=C(C)[C@@H]1CC=C2c3sc(-c4ccccc4)nc3C[C@@H](C)[C@]2(C)C1` [Compound 7, (5R,5aS,7R)-7-isopropenyl-5,5a-dimethyl-2-phenyl-5,6,7,8-tetrahydro-4H-benzo[g][1,3]benzothiazole], for which the MIC in [1] (setting [10]), in assay [2] (setting [11]), in assay [3] (S. epidermidis 700296), in assay [4] (setting [12]), in [5] (setting [13]) and in assay [6] (setting [14]) was above 100 µg/mL each time. Further, the MIC in assay [7] (setting [15]) and in [8] (setting [16]) was above 100 µg/mL in each case.
`C=C(C)[C@@H]1CC=C2c3sc(-c4ccc(C(F)(F)F)cc4)nc3C[C@@H](C)[C@]2(C)C1` [Compound 22, (5R,5aS,7R)-7-isopropenyl-5,5a-dimethyl-2-[4-(trifluoromethyl)phenyl]-5,6,7,8-tetra-tetrahydro-4H-benzo[g][1,3]benzothiazole]: the MIC in [1] (setting [10]), in assay [2] (setting [11]), in assay [3] (S. epidermidis 700296), in [4] (setting [12]), in [5] (setting [13]) and in assay [6] (setting [14]) was above 100 µg/mL each time. For the same molecule, the MIC in assay [7] (setting [15]) and in assay [8] (setting [16]) was above 100 µg/mL in each case.
For `C=C(C)[C@@H]1CC=C2c3sc(Nc4ccccc4[N+](=O)[O-])nc3C[C@@H](C)[C@]2(C)C1` [Compound 29, (5R,5aS,7R)-7-isopropenyl-5,5a-dimethyl-N-(2-nitrophenyl)-5,6,7,8-tetrahydro-4H-benzo[g][1,3]benzothiazol-2-amine], the MIC in assay [1] (setting [10]), in assay [2] (setting [11]), in [3] (S. epidermidis 700296), in assay [4] (setting [12]), in [5] (setting [13]) and in [6] (setting [14]) was above 100 µg/mL throughout. Further, the MIC in [7] (setting [15]) and in [8] (setting [16]) was above 100 µg/mL throughout.
